Article PMC11403612, “Preparation and Preclinical Characterization of a Simple Ester for Dual Exogenous Supply of Lactate and Beta-hydroxybutyrate” (Journal of Agricultural and Food Chemistry, 2024)

Assays:
[1] = Short-term pharmacokinetics of LaKe in rats (BHB and lactate levels); assay type: in vivo, Sprague–Dawley rats; details: 4.5 g/kg oral
Description: Male Sprague–Dawley rats (300–350g, Taconic, Ry, Denmark) were kept for acclimatization at a constant temperature of 23 °C with a 12 h light-dark cycle and with unlimited access to food and water. All animal handling was in accordance with national guidelines in Denmark and the guidelines from the Directive 2010/63/EU of the European Parliament on the protection of animals used for scientific purposes, and all experiments conformed to Danish Law (Act. No. 1306 of 23/11/2007). The experimental protocol was approved by the Danish Animal Expectorate (2018-15-0201-01475).
The rats were randomly selected to receive either LaKe (n = 8) or placebo (n = 8).
Rats were anesthetized in an induction chamber with 8% Sevoflurane (Sevorane, AbbVIE A/S, Copenhagen, Denmark) mixed with oxygen saturated atmospheric air (flow: 2.0 L/min). Upon achieved anesthesia, the rats were intubated and connected to a mechanical ventilator (Ugo Basile 7025 rodent ventilator, Comerio, Varese, Italy) with an adjusted flow of 1.0L/min with 3.5% Sevoflurane. Body temperature was kept at a constant of 37 ± 1 °C with a temperature probe (UNO, Zevenaar, Holland). A PTFE-coated flexible orogastric tube (Fuchigami, Japan) was placed, and the rat was left for stabilization for 15 min. […]
Short term pharmacokinetics of LaKe in rats – Detailed protocols for LC-MS/MS and FFA analyses BHB quantification by LC-MS/MS […]

[2] = Extended pharmacokinetics of LaKe in rats (LaKe, lactate, BHB plasma levels); assay type: in vivo, SD rats
Description: Animals (SD rats, both male and female, 7–9 weeks) were individually housed from 24 h before dosing until the end of the study. Food was withdrawn the night before initiation of study; following food withdrawal, animals were maintained on glucose water containing 5% w/v glucose and 1% saline to suppress endogenous ketone production throughout the study. Food was returned 8 h post-test article dosing. Animals were monitored for distress or notable changes in behavior during the study. The animals were euthanized by CO2 inhalation 2 h after the last sample collection time point.
Blood collection was performed by jugular vein cannulation of each animal and divided into two parts. About 10–15 μL of blood was used for the analysis of glucose by glucometer measurement. About 0.20 mL of blood was collected into prechilled commercial EDTA-K2 tubes containing 5 μL of the esterase inhibitor (100 mM PMSF in ethanol, 40 mg/mL NaF and 120 mg/mL […] in water = 5:95(v/v). All blood samples were placed on wet ice until centrifugation.
At least 100 μL plasma was collected respectively and transferred into polypropylene tubes with 400 mM TTFA (2-thenoyltrifluoroacetone) in ethanol (plasma:stabilizer = 100:5 (v:v)). The final concentration of TTFA in the plasma sample from each time point was approximately 20 mM. The samples were snap frozen over dry ice and kept at −60 °C or lower until LC-MS/MS analysis for 3-hydroxybutyl 2-hydroxypropanoate (LaKe), lactate, and β-hydroxybutyrate (BHB).
Calibration curves were constructed by linear regression of the peak area of the pure calibrant samples versus the nominal analyte concentrations and based on eight points. The Lac-Phe concentrations in rat plasma samples were derived from their peak area with reference to the calibration curve.
Extended pharmacokinetics of LaKe in rats – Detailed protocols for LC-MS/MS analyses 3-hydroxybutyl 2-hydroxypropanoate (LaKe): […]
3-hydroxybutyl 2-hydroxypropanoate (LaKe) was detected by SRM. […]

CC(O)CCOC(=O)C(C)O (centres unmarked) [LaKe, 3-hydroxybutyl 2-hydroxypropanoate]
BHB levels at 120 min [1]: remained elevated
lactate levels at 120 min [1]: largely back at the baseline level
concentration at 15 min ([2]; both sexes, SD, rat, plasma, oral, 1.3 g/kg, the lower dose, 15 min): 540 nM
concentration at 30 min ([2]; both sexes, SD, rat, plasma, oral, 1.3 g/kg, the lower dose, 30 min): 260 nM
maximum average plasma level of LaKe ([2]; maximum dose of 12 g/kg): 5 µM
